Source: PubChem BioAssay AID1918955 (Molecular Pharmacology Branch, DTP, NCI, 2023)
pIC50: −log10 of the molar value.

Tested on: NCI/ADR-RES complex spheroid viability
Assay: Anticancer human tumor NCI/ADR-RES cell line growth inhibition;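 further: spheroids exposed to compounds for 7 days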;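 on viability, T/C: 100% = DMSO vehicle treated spheroids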
Details: for pIC50: curve of first compound; for viability, T/C: stronger effect = lower value
Outline: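 Drug combinations with the LSD1 inhibitor iadademstat tested on tumor cells co-cultured as spheroids with endothelial cells and mesenchymal stem cells. Concentrations descended in half-log increments from clinical Cmax or 10 microM.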

[1] = second compound 0.1 µM, first compound 0.00949 µM
[2] = second compound 0.1 µM, first compound 0.03 µM
[3] = second compound 0.1 µM, first compound 0.0949 µM
[4] = second compound 0.1 µM, first compound 0.3 µM
[5] = second compound 0.316 µM, first compound 0.00949 µM
[6] = second compound 0.316 µM, first compound 0.03 µM
[7] = second compound 0.316 µM, first compound 0.0949 µM
[8] = second compound 0.316 µM, first compound 0.3 µM
[9] = second compound 1 µM, first compound 0.00949 µM
[10] = second compound 1 µM, first compound 0.03 µM
[11] = second compound 1 µM, first compound 0.0949 µM
[12] = second compound 1 µM, first compound 0.3 µM
[13] = second compound 3.16 µM, first compound 0.00949 µM
[14] = second compound 3.16 µM, first compound 0.03 µM
[15] = second compound 3.16 µM, first compound 0.0949 µM
[16] = second compound 3.16 µM, first compound 0.3 µM
[17] = second compound 10 µM, first compound 0.00949 µM
[18] = second compound 10 µM, first compound 0.03 µM
[19] = second compound 10 µM, first compound 0.0949 µM
[20] = second compound 10 µM, first compound 0.3 µM

Row | Structure (SMILES) | pIC50 (second compound 0.1 µM) | pIC50 (second compound 0.316 µM) | pIC50 (second compound 1 µM) | pIC50 (second compound 3.16 µM) | pIC50 (second compound 10 µM) | viability, T/C [1] [%] | viability, T/C [2] [%] | viability, T/C [3] [%] | viability, T/C [4] [%] | viability, T/C [5] [%] | viability, T/C [6] [%] | viability, T/C [7] [%] | viability, T/C [8] [%] | viability, T/C [9] [%] | viability, T/C [10] [%] | viability, T/C [11] [%] | viability, T/C [12] [%] | viability, T/C [13] [%] | viability, T/C [14] [%] | viability, T/C [15] [%] | other results
1 | CCN(c1cc(-c2ccc(CN3CCOCC3)cc2)cc(C(=O)NCc2c(C)cc(C)[nH]c2=O)c1C)C1CCOCC1 + NC1CC1c1ccc(-c2cccc(O)c2)cc1 | < 5.52 | < 5.52 | < 5.52 | < 5.52 | < 5.52 | 102 | 104 | 104 | 106 | 104 | 102 | 104 | 103 | 92.1 | 96.3 | 104 | 90.2 | 93 | 99 | 95.3 | viability, T/C (second compound 0.1 µM, first compound 0.949 µM): 94.2%; viability, T/C (second compound 0.1 µM, first compound 3 µM): 88.9%; viability, T/C (second compound 0.316 µM, first compound 0.949 µM): 105%; viability, T/C (second compound 0.316 µM, first compound 3 µM): 95.5%; viability, T/C (second compound 1 µM, first compound 0.949 µM): 93.4%; viability, T/C (second compound 1 µM, first compound 3 µM): 87.7%; viability, T/C [16]: 94.9%; viability, T/C (second compound 3.16 µM, first compound 0.949 µM): 90.2%; viability, T/C (second compound 3.16 µM, first compound 3 µM): 81.8%; viability, T/C [17]: 92.6%; viability, T/C [18]: 87.8%; viability, T/C [19]: 91.8%; viability, T/C [20]: 86.7%; viability, T/C (second compound 10 µM, first compound 0.949 µM): 82.7%; viability, T/C (second compound 10 µM, first compound 3 µM): 79%
2 | Nc1ncn(C2CC(O)C(CO)S2)c(=O)n1 (stereo not given) + NC1CC1c1ccc(-c2cccc(O)c2)cc1 | 8.13 | 8.12 | 8.17 | 8.26 | 8.35 | 44.7 | 29.6 | 11.8 | 2.46 | 47.8 | 30.6 | 9.77 | 2.75 | 41.2 | 25.5 | 9.64 | 2.79 | 43 | 24.6 | 9.31 | viability, T/C (second compound 0.1 µM, first compound 0.000949 µM): 89.3%; viability, T/C (second compound 0.1 µM, first compound 0.003 µM): 66%; viability, T/C (second compound 0.316 µM, first compound 0.000949 µM): 91.2%; viability, T/C (second compound 0.316 µM, first compound 0.003 µM): 62.5%; viability, T/C (second compound 1 µM, first compound 0.000949 µM): 88.4%; viability, T/C (second compound 1 µM, first compound 0.003 µM): 68%; viability, T/C (second compound 3.16 µM, first compound 0.000949 µM): 85.4%; viability, T/C (second compound 3.16 µM, first compound 0.003 µM): 58.3%; viability, T/C [16]: 2.63%; viability, T/C (second compound 10 µM, first compound 0.000949 µM): 77%; viability, T/C (second compound 10 µM, first compound 0.003 µM): 54%; viability, T/C [17]: 38.6%; viability, T/C [18]: 26.2%; viability, T/C [19]: 11.8%; viability, T/C [20]: 3.24%
